# Assay results as given in paper PMC10079573 (The journal of pain, 2022).
# Experiments:
# in vitro [1] = format: in vitro ADME; conditions: human; for fraction unbound at 4 h, 5 µM: plasma
# Procedure: (§1) The objective of this study was to evaluate protein binding test compounds in human and mice plasma. This was accomplished by spiking the test compounds at a concentration of 5 µM into human and mice plasma and dialyzing against buffer until equilibrium is achieved (4 hours). Analyte area ratios of the test compounds in plasma and buffer were determined to calculate unbound and bound percentages of compound to the plasma proteins.
# (§2) Compound concentration : 5 µM
# (§3) Rapid equilibrium dialysis was performed with a rapid equilibrium dialysis (RED) device containing dialysis membrane with a molecular weight cut-off of 8,000 Daltons. Each dialysis insert contains two chambers. The red chamber is for plasma while the white chamber is for buffer.
# (§4) After sealing the RED device with an adhesive film, dialysis was performed in incubator at 37 °C with shaking at 100 RPM for 4 hours.
# (§5) Two aliquots were frozen immediately (0 minute sample). The other two aliquots were incubated at 37 °C for 4 hours along with the RED device.
# (§6) Following dialysis, an aliquot of 50 µL was removed from each well (both plasma and buffer side) and diluted with equal volume of opposite matrix (dialyzed with the other matrix) to nullify the matrix effect. Similarly, 50 µL of buffer was added to recovery and stability samples. An aliquot of 100 µL was submitted for LC-MS/MS analysis.
# (§7) The peak area ratios (analyte versus internal standard) obtained was used to determine the fraction of compound bound to plasma proteins. The following equation was used to determine the extent of plasma protein binding:
# (§8) Percent free drug = 100 x (peak area ratio in dialysate buffer)
# (§9) Percent bound drug = 100 - % free drug
# (§10) Recovery (%): 100 x (response plasma + response buffer) after dialysis / (response plasma) incubated at 37 °C in tubes along with RED device.
# (§11) Stability (%):100 x (response plasma) incubated at 37 °C in tubes along with RED device / (response plasma) samples frozen at 0 min
# in vitro [2] = format: in vitro ADME, mice; conditions: mouse; for fraction unbound at 4 h, 5 µM: plasma
# Procedure: as §1, §2, §3, §4, §5, §6, §7, §8, §9, §10, §11
# PAR2 = molecular target: T1, PAR2 (Mus musculus, UniProt P55086); experiment: Local intraplantar coinjection of C781 with PAR2 agonist 2AT: von Frey, Mouse Grimace Scale, hyperalgesic priming (PGE2); format: in vivo, C57BL6 mice; conditions: 2AT 20.9 ng intraplantar
# T1 construct: from tissue; host or cells: living C57BL6 mice (hind paw / nociceptors)
# T1 sequence (P55086 26-399): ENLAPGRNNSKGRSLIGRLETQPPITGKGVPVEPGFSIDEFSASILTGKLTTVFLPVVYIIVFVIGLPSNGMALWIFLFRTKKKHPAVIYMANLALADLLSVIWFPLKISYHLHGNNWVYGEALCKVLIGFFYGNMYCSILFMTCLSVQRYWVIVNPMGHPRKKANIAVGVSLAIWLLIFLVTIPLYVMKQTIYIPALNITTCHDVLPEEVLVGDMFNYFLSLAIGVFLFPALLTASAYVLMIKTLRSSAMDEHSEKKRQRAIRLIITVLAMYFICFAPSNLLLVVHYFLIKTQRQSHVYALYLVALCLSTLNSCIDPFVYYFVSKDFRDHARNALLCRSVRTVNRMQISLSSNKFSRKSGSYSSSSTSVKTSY
# Procedure: Experimenters were blinded to treatment groups in all experiments. Animals were habituated to suspended acrylic chambers with each individual chamber measuring 11.4 × 7.6 × 7.6 cm and a wire mesh bottom (1 cm^2). Mechanical hypersensitivity was assessed using the manual von Frey hair test after spontaneous pain assessment using the Mouse Grimace Scale (MGS). This was done to assure that grimacing responses were not a result of mechanical stimulation.
# MGS were determined using the MGS test as described by Langford and colleagues.[37] After habituation, the experimenter observed the mice and assigned intensity ratings (0 = not present, 1 = moderately present, 2 = severe) to the facial action units relative to baseline. The 5 action units identified are 1) orbital tightening, 2) nose bulge, 3) cheek bulge, 4) ear position, and 5) whisker change. The scores for all 5 action units are averaged to obtain the MGS score for each time point.
# Hind paw withdrawal thresholds were calculated via the Dixon up-down method after applying calibrated von Frey filaments from Stoelting, Co. (cat# 58011) to the volar surface of the left hind paw.[12] […] The maximum filament weight used was 2 g.
# Hyperalgesic priming was determined after allowing animals to return to baseline levels and injecting the previously injected paw with 100 ng of PGE2 (Cayman Chemical, Ann Arbor, MI). […]
"recovery at 4 h, 5 µM (in vitro [1]; pH 7.4) [%]","fraction unbound at 4 h, 5 µM (in vitro [1]; pH 7.4, % Bound Mean ± SD)","fraction unbound at 4 h, 5 µM (in vitro [1]; pH 7.4, % Bound R1)","fraction unbound at 4 h, 5 µM (in vitro [1]; pH 7.4, % Bound R2)","fraction unbound at 4 h, 5 µM (in vitro [1]; pH 7.4, % Bound R3)","recovery at 4 h, 5 µM (in vitro [2]; pH 7.4) [%]","fraction unbound at 4 h, 5 µM (in vitro [2]; pH 7.4, % Bound Mean ± SD)","fraction unbound at 4 h, 5 µM (in vitro [2]; pH 7.4, % Bound R1)","fraction unbound at 4 h, 5 µM (in vitro [2]; pH 7.4, % Bound R2)","fraction unbound at 4 h, 5 µM (in vitro [2]; pH 7.4, % Bound R3)",Compound,"Nociceptive behaviors evoked by agonist (mechanical hypersensitivity, facial grimacing) (PAR2)",Hyperalgesic priming by agonist (response to PGE2) (PAR2; then PGE2 100 ng intraplantar)
97,0.011,0.012,0.01,0.011,94,0.061,0.058,0.057,0.07,CC(=O)CC(c1ccccc1)c1c(O)c2ccccc2oc1=O (stereo not drawn) [Warfarin],–,–
–,–,–,–,–,–,–,–,–,–,2-aminothiazo-4-yl-LIGRL-NH2 [Compound 2AT],caused both mechanical hypersensitivity and facial grimacing,primed and exhibited mechanical allodynia and facial grimacing in response to PGE2
